Structures are written as SMILES. Bounds are passed on as bounds.

The subject of the assay is A549 cells. The experiment in a line: Cell migration assay (24-well transwell, laminin). It is filed as cell-based, human. Particulars: Homo sapiens, A549, 6 h, laminin 10 μg/mL in lower well, test compounds 0.39˜100 μM, migrated cells counted, read-out: Inhibitory activity against cell migration. In short, it runs like this: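 Serum-free RPMI1640 transwell (8.0 μm pore) with laminin (10 μg/mL) in lower well; A549 cells (1×10^6 cells/mL) and compounds (0.39–100 μM) in both chambers, 6 h at 37 °C. Hematoxylin-stained cells on membrane underside counted at three fields (×20); IC50 by non-linear regression.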
`COc1ccc(CCN(Cc2ccc(C(=O)O)cc2)c2nc3ccc(C)c(F)c3s2)cc1` [Example 94, 4-({(7-fluoro-6-methyl-benzo[d]thiazol-2-yl)[2-(4-methoxyphenyl)ethyl]amino}methyl)benzoic acid]: the IC50 was < 1 µM.

As to `COc1ccc(CCN(Cc2ccc(C(=O)O)cc2)c2nc3c(F)cc(F)cc3s2)cc1` [Example 95, 4-({(4,6-difluorobenzo[d]thiazol-2-yl)[2-(4-methoxyphenyl)ethyl]amino}methyl)benzoic acid], the IC50 was < 1 µM. In the case of `COc1ccc(CCN(Cc2ccc(C(=O)O)cc2)c2nc3cccc(C)c3s2)cc1` [Example 96, 4-({[2-(4-methoxyphenyl)ethyl](7-methyl-benzo[d]thiazol-2-yl)amino}methyl)benzoic acid] it was > 10 µM; in that of `COc1ccc(CCN(Cc2ccc(C(=O)O)cc2)c2nc3ccc(C)cc3s2)cc1` [Example 97, 4-({[2-(4-methoxyphenyl)ethyl](6-methyl-benzo[d]thiazol-2-yl)amino}methyl)benzoic acid], > 10 µM. In the case of `COc1ccc(CCN(Cc2ccc(C(=O)O)cc2)c2nc3cc(C)ccc3s2)cc1` [Example 98, 4-({[2-(4-methoxyphenyl)ethyl](5-methyl-benzo[d]thiazol-2-yl)amino}methyl)benzoic acid] it was > 10 µM. In the case of `COc1ccc(CCN(c2nc3cc(F)cc(F)c3s2)C(C)c2ccc(C(=O)O)cc2)cc1` (stereo not drawn) [Example 99, 4-(1-{(5,7-difluorobenzo[d]thiazol-2-yl)[2-(4-methoxyphenyl)ethyl]amino}ethyl)benzoic acid] it was > 10 µM. On to `COc1ccc(CCN(c2nc3cc(F)c(F)cc3s2)C(C)c2ccc(C(=O)O)cc2)cc1` (stereo not drawn) [Example 100, 4-(1-{(5,6-difluorobenzo[d]thiazol-2-yl)[2-(4-methoxyphenyl)ethyl]amino}ethyl)benzoic acid], for which the IC50 is > 10 µM. In the case of `COc1ccc(CCN(c2nc3cc(F)c(F)c(F)c3s2)C(C)c2ccc(C(=O)O)cc2)cc1` (stereo not drawn) [Example 101, 4-(1-{[2-(4-methoxyphenyl)ethyl](5,6,7-trifluorobenzo[d]thiazol-2-yl)amino}ethyl)benzoic acid] it was > 10 µM. As for `COc1ccc(CCN(c2nc3ccc(Cl)c(F)c3s2)C(C)c2ccc(C(=O)O)cc2)cc1` (stereo not drawn) [Example 102, 4-(1-{(6-chloro-7-fluorobenzo[d]thiazol-2-yl)[2-(4-methoxyphenyl)ethyl]amino}ethyl)benzoic acid], the IC50 was > 10 µM. In the case of `COc1ccc(CCN(c2nc3cc(Br)ccc3s2)C(C)c2ccc(C(=O)O)cc2)cc1` (stereo not drawn) [Example 103, 4-(1-{(5-bromo-benzo[d]thiazol-2-yl)[2-(4-methoxyphenyl)ethyl]amino}ethyl)benzoic acid] it was > 10 µM; in that of `COc1ccc(CCN(c2nc3ccc(F)c(F)c3s2)C(C)c2ccc(C(=O)O)cc2)cc1` (stereo not drawn) [Example 104, 4-(1-{(6,7-difluorobenzo[d]thiazol-2-yl)[2-(4-methoxyphenyl)ethyl]amino}ethyl)benzoic acid], > 10 µM; in that of `COc1ccc(CCN(c2nc3ccc(C)c(F)c3s2)C(C)c2ccc(C(=O)O)cc2)cc1` (stereo not drawn) [Example 105, 4-(1-{(7-fluoro-6-methyl-benzo[d]thiazol-2-yl)[2-(4-methoxyphenyl)ethyl]amino}ethyl)benzoic acid], > 10 µM. In the case of `COc1ccc(CCN(c2nc3cccc(C(F)(F)F)c3s2)C(C)c2ccc(C(=O)O)cc2)cc1` (stereo not drawn) [Example 106, 4-(1-{[2-(4-methoxyphenyl)ethyl][7-(trifluoromethyl)-benzo[d]thiazol-2-yl]amino}ethyl)benzoic acid] it was > 10 µM; in that of `COc1ccc(CCN(c2nc3cc(Cl)ccc3s2)C(C)c2ccc(C(=O)O)cc2)cc1` (stereo not drawn) [Example 107, 4-(1-{(5-chloro-benzo[d]thiazol-2-yl)[2-(4-methoxyphenyl)ethyl]amino}ethyl)benzoic acid], > 10 µM. In the case of `COc1ccc(CCN(c2nc3ccc(Cl)cc3s2)C(C)c2ccc(C(=O)O)cc2)cc1` (stereo not drawn) [Example 108, 4-(1-{(6-chloro-benzo[d]thiazol-2-yl)[2-(4-methoxyphenyl)ethyl]amino}ethyl)benzoic acid] it was > 10 µM; in that of `COc1ccc(CCN(c2nc3cccc(Cl)c3s2)C(C)c2ccc(C(=O)O)cc2)cc1` (stereo not drawn) [Example 109, 4-(1-{(7-chloro-benzo[d]thiazol-2-yl)[2-(4-methoxyphenyl)ethyl]amino}ethyl)benzoic acid], < 1 µM; in that of `COc1ccc(CCN(c2nc3cccc(C)c3s2)C(C)c2ccc(C(=O)O)cc2)cc1` (stereo not drawn) [Example 110, 4-(1-{[2-(4-methoxyphenyl)ethyl](7-methyl-benzo[d]thiazol-2-yl)amino}ethyl)benzoic acid], > 10 µM. In the case of `COc1ccc(CCN(c2nc3ccc(C)cc3s2)C(C)c2ccc(C(=O)O)cc2)cc1` (stereo not drawn) [Example 111, 4-(1-{[2-(4-methoxyphenyl)ethyl](6-methyl-benzo[d]thiazol-2-yl)amino}ethyl)benzoic acid], the IC50 is > 10 µM.

On to `COc1ccc(CCN(c2nc3cc(C)ccc3s2)C(C)c2ccc(C(=O)O)cc2)cc1` (stereo not drawn) [Example 112, 4-(1-{[2-(4-methoxyphenyl)ethyl](5-methyl-benzo[d]thiazol-2-yl)amino}ethyl)benzoic acid], for which the IC50 was > 10 µM. For the molecule `COc1ccc(CCN(c2nc3cc(F)ccc3s2)C(C)c2ccc(C(=O)O)cc2)cc1` (stereo not drawn) [Example 113, 4-(1-{(5-fluorobenzo[d]thiazol-2-yl)[2-(4-methoxyphenyl)ethyl]amino}ethyl)benzoic acid], the IC50 is > 10 µM. In the case of `COc1ccc(CCN(c2nc3c(F)cc(F)cc3s2)C(C)c2ccc(C(=O)O)cc2)cc1` (stereo not drawn) [Example 114, 4-(1-{(4,6-difluorobenzo[d]thiazol-2-yl)[2-(4-methoxyphenyl)ethyl]amino}ethyl)benzoic acid], the IC50 was > 10 µM. Regarding `COc1ccc(CCN(Cc2ccc(C(=O)O)cc2)c2nc3ccc(Br)cc3s2)cc1` [Example 115, 4-({(6-bromo-benzo[d]thiazol-2-yl)[2-(4-methoxyphenyl)ethyl]amino}methyl)benzoic acid], the IC50 is > 10 µM. For `COc1ccc(CCN(c2nc3ccc(Br)cc3s2)C(C)c2ccc(C(=O)O)cc2)cc1` (stereo not drawn) [Example 116, 4-(1-{(6-bromo-benzo[d]thiazol-2-yl)[2-(4-methoxyphenyl)ethyl]amino}ethyl)benzoic acid], the IC50 was > 10 µM.

Take `COc1ccc(CCN(Cc2ccc(C(=O)O)cc2)c2nc3ccc(C(=O)O)cc3s2)cc1` [Example 117, 2-{(4-carboxybenzyl)[2-(4-methoxyphenyl)ethyl]amino}benzo[d]thiazole-6-carboxylic acid]: the IC50 was > 10 µM.

As for `COc1ccc(CCN(Cc2ccc(C(=O)O)cc2)c2nc3cccc(C(=O)O)c3s2)cc1` [Example 118, 2-{(4-carboxybenzyl)[2-(4-methoxyphenyl)ethyl]amino}benzo[d]thiazole-7-carboxylic acid], the IC50 was > 10 µM. As to `COc1ccc(CCN(Cc2ccc(C(=O)O)cc2)c2nc3ccc(C(F)(F)F)cc3s2)cc1` [Example 119, 4-({[2-(4-methoxyphenyl)ethyl][6-(trifluoromethyl)benzo[d]thiazol-2-yl]amino}methyl)benzoic acid], the IC50 is > 10 µM. Consider `COc1ccc(CCN(Cc2ccc(C(=O)O)cc2)c2nc3cc(C(F)(F)F)ccc3s2)cc1` [Example 120, 4-({[2-(4-methoxyphenyl)ethyl][5-(trifluoromethyl)benzo[d]thiazol-2-yl]amino}methyl)benzoic acid], for which the IC50 was < 1 µM. In the case of `COc1ccc(CCN(Cc2ccc(C(=O)O)cc2)c2nc3ccc(C(F)(F)F)c(F)c3s2)cc1` [Example 121, 4-({[7-fluoro-6-(trifluoromethyl)benzo[d]thiazol-2-yl][2-(4-methoxyphenyl)ethyl]amino}methyl)benzoic acid] it was > 10 µM; in that of `COc1ccc(CCN(c2nc3cc(F)cc(F)c3s2)C(C)c2ccc(C(=O)O)cc2)cc1F` (stereo not drawn) [Example 122, 4-(1-{(5,7-difluorobenzo[d]thiazol-2-yl)[2-(3-fluoro-4-methoxyphenyl)ethyl]amino}ethyl)benzoic acid], < 1 µM. In the case of `COc1ccc(CCN(c2nc3cc(C(F)(F)F)ccc3s2)C(C)c2ccc(C(=O)O)cc2)cc1` (stereo not drawn) [Example 124, 4-(1-{[2-(4-methoxyphenyl)ethyl][5-(trifluoromethyl)benzo[d]thiazol-2-yl]amino}ethyl)benzoic acid] it was < 1 µM.

Source of the values: patent publication US10383859B2, “Benzo[d]thiazole derivative or salt thereof, and pharmaceutical composition including same” (Yuhan Corporation, priority 2016, dated 2019).
